pEC50, pIC50: −log10 of the molar value.
Legend:
Fzd5 mRNA = experiment: Real-time PCR of Fzd5 in CLL cells; format: cell-based, human; conditions: CLL cells from three patients, 16 hours
SW480 = experiment: Cytotoxicity of EA in tumor cell line SW480; format: cell-based; conditions: Homo sapiens, mean of at least two experiments
A549 = experiment: Cytotoxicity of EA in tumor cell line A549; format: cell-based; conditions: Homo sapiens, mean of at least two experiments
Wnt/β-catenin signaling = experiment: TOPflash reporter assay in transfected HEK293 cells; format: cell-based, human
[1] = system: different tumor cell lines; experiment: Cytotoxicity of EA in different tumor cell lines (summary); format: cell-based; conditions: read-out: mean 50% inhibitory concentration (IC50) of EA in these cell lines; range over the tumor cell lines of Table 3
Wnt signaling = experiment: CellSensor LEF/TCF-bla SW480 cell-based assay (Wnt signaling inhibition); parameters: species or system human; conditions: Homo sapiens; LEF/TCF-bla SW480 cells, 20 hours
Description: To determine the specificity of compounds on Wnt/[…]-catenin pathway inhibition, CellSensor LEF/TCF-bla SW480 cell-based assay (Invitrogen, Carlsbad, Calif.) was used according to the supplier's instructions, but modified for a 96 well format. Cells were plated at 25,000 cells/well in assay medium in 96-well black plates with clear bottom (Corning) the day prior to compound treatment.

LEF-1 = molecular target: T1, LEF-1 (Homo sapiens, UniProt Q9UJU2); experiment: Immunoprecipitation and immunoblotting with anti-EA antibody: LEF-1; format: binding
T1 construct: endogenous in cells; host or cells: primary CLL cells from patients; SW480 cells
T1 sequence (Q9UJU2 whole entry): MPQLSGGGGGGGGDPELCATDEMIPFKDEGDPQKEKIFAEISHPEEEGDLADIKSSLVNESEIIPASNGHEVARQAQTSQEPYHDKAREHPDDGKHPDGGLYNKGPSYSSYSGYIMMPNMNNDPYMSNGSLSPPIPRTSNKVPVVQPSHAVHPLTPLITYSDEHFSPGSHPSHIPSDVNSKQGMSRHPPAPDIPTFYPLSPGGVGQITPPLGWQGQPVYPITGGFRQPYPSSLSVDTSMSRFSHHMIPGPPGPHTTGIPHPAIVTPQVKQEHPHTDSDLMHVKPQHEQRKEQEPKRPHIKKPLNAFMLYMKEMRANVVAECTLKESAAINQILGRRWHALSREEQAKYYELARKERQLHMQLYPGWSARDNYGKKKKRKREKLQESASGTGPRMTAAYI
Description: FIG. 6. EA binds to LEF-1 in primary CLL and SW480 cells. (A) lysates from CLL cells exposed to 10 μM EA for 8 hours or 24 hours were immunoprecipitated with anti-LEF-1 antibody. The immune complexes were analyzed by immunoblotting with anti-LEF-1 and anti-EA antibodies. (B) SW480 cells were treated with indicated amounts of EA for 16 hours. Cell lysates were immunoprecipitated with anti-β-catenin antibody (Santa Cruz Biotechnology, Santa Cruz, Calif.). The immune complexes were analyzed by immunoblotting with anti-EA and anti-β-catenin antibodies. (C) SW480 cells were exposed to 50 μM of EA for 16 hours and cell lysates were immunoprecipitated with anti-β-catenin antibody. The proteins in the immunoprecipitates were resolved by SDS-PAGE, transferred, and probed with indicated antibodies.
A conjugate of EA with Keyhole Limpet Hemocyanin (KLH, Sigma) was prepared by thiolation of KLH with N-succinimidyl S-acetylthioacetate (SATA), followed by allowing the SATA-KLH conjugate to form a Michael adduct with EA, as described in Hermanson (1996). Immunization of rabbits was performed by three 1 mL subcutaneous injections of approximately 0.4 mg EA-KLH conjugates. Complete Freund's adjuvant was used for the first injection. The second and third injections were performed 3 and 6 weeks after the first, using incomplete adjuvant. […]

HepG2 = experiment: Cytotoxicity of EA in tumor cell line HepG2; format: cell-based; conditions: Homo sapiens, mean of at least two experiments
U266 = experiment: Cytotoxicity of EA in tumor cell line U266; format: cell-based; conditions: Homo sapiens, U-266, mean of at least two experiments
Primary CLL cells [2] = experiment: Cell apoptosis assay (DiOC6/PI flow cytometry) in primary CLL cells; format: cell-based, human; conditions: 3 μM EA; preliminary, data not shown
[3] = system: LEF-1, cyclin D1 and fibronectin mRNA; experiment: Real-time PCR of Wnt target genes in CLL cells; format: cell-based, human; conditions: CLL cells from three patients, 16 hours
Primary CLL cells [4] = experiment: Cell viability assay (MTT) with primary CLL cells; conditions: 48 hours
HT29 = experiment: Cytotoxicity of EA in tumor cell line HT29; format: cell-based; conditions: Homo sapiens, HT-29, mean of at least two experiments

## C=C(CC)C(=O)c1ccc(OCC(=O)O)c(Cl)c1Cl [Compound 1, Ethacrynic acid]
Fzd5 mRNA
  Fzd5 expression: dose-dependent enhancement
SW480
  pIC50: 4.17
A549
  pIC50: 3.75
Wnt/β-catenin signaling; 50 μM EA, 24 hours
  effect on Wnt1/LRP6 or Wnt3/LRP6, Dvl, and β-catenin-induced transcription: reduced
Wnt/β-catenin signaling; Dvl-activated, generally at 10 μM and 50 μM, overnight
  inhibition of TOPflash activity (drug library screen): ≥ 30%
[1]
  pIC50: 3.70 to 4.40
Wnt signaling
  pIC50: 4.49
LEF-1; CLL lysates, EA 10 μM, 8 hours and 24 hours
  reaction of immunoprecipitated LEF-1 with anti-EA antibody: reacted strongly with the anti-EA antibody
LEF-1; SW480 cells, 50 μM EA, 16 hours, anti-β-catenin immunoprecipitate
  staining of the LEF-1 band with anti-EA antibody: stained positive with the anti-EA antibody only in the drug treated samples
HepG2
  pIC50: 3.65
U266
  pIC50: 4.05
Primary CLL cells [2]
  effect on fludarabine-mediated apoptosis of CLL cells: enhanced
[3]
  LEF-1, cyclin D1 and fibronectin mRNA expression: decreased
Primary CLL cells [4]; read-out: CLL Inhibition EC50, CLL survival, MTT
  pEC50: 5.00
Primary CLL cells [4]; read-out: IC50-EA, Primary CLL cells from nine patients, mean
  pIC50: 5.07
HT29
  pIC50: 4.25

Source: patent publication US20110306671A1, “AMIDE DERIVATIVES OF ETHACRYNIC ACID” (The Regents of the The University of California, priority 2008, published 2011)
